Assay results: patent US20100069385A1, “LIQUID FORMULATIONS OF PHOSPHOLIPASE ENZYME INHIBITORS” (WYETH, priority 2006, published 2010)

Columns and labels:
[1] = Solubility at room temperature in water, acid and basic conditions; assay type: physicochemical; conditions: free acid, below HPLC detection limit, read-out: intrinsic solubility of the free acid
Description: The solubility of 4-(3-{5-chloro-1-(diphenylmethyl)-2-[2-({[2-(trifluoromethyl)benzyl]sulfonyl}amino)ethyl]-1H-indol-3-yl}propyl)benzoic acid was measured at room temperature in water, acid and basic conditions.

[2] = test system: rat carrageenan-induced paw edema (CPE); assay: Rat carrageenan-induced paw edema (CPE) study; assay type: in vivo
Description: Data from a rat carrageenan-induced paw edema (CPE) study indicated the minimum efficacious exposure of 4-(3-{5-chloro-1-(diphenylmethyl)-2-[2-({[2-(trifluoromethyl)benzyl]sulfonyl}amino)ethyl]-1H-indol-3-yl}propyl)benzoic acid was 1360 ng*hr/ml.

For `O=C(O)c1ccc(CCCc2c(CCNS(=O)(=O)Cc3ccccc3C(F)(F)F)n(C(c3ccccc3)c3ccccc3)c3ccc(Cl)cc23)cc1` [4-(3-{5-chloro-1-(diphenylmethyl)-2-[2-({[2-(trifluoromethyl)benzyl]sulfonyl}amino)ethyl]-1H-indol-3-yl}propyl)benzoic acid], the solubility [1] was under 0.031 µg/mL and the minimum efficacious exposure [2] was 1360 ng·h/mL.
